Earlier results on one compound are cited in patent US11083779B2, “Method for treatment of encephalopathy” (priority 2018, dated 2021).

For the series, the system named is toxic encephalopathy. To be noted: PIRACETAM i.v. 10-15 minutes before transcranial electrical stimulation, two steps (77 Hz, 10 Hz).

In the case of `NC(=O)CN1CCCC1=O` [PIRACETAM®, PIRACETAM], the “patient symptoms after treatment” value is “decrease of headaches, giddiness and the improvement of sleep”.
